Here are results for two compounds from US12252524B2, “GIP/GLP1 co-agonist compounds” (Eli Lilly and Company, priority 2018, dated 2025).

The term Ki denotes the dissociation constant of the complex between target and ligand, obtained from inhibition or displacement. One may read the EC50 as the concentration at which the effect is half-maximal.

SMILES strings stand for the structures. Numbered stars: 1 amine (or outer) side, 2 acyl side, 3 side chain; on linkers, the order of the positions; unused ones are H or OH. Square brackets hold non-standard residues; d marks the D form. Side chains are listed from the residue outwards. Peptide text beside a SMILES is read from it. * marks the point of attachment. C20 diacid = O=C(O)CCCCCCCCCCCCCCCCCCC(=O)*; γGlu = O=C(O)[C@H](CCC(=O)[*:2])N[*:1]; αMeF = C[C@](N)(Cc1ccccc1)C(=O)O; αMeL = CC(C)C[C@](C)(N)C(=O)O; AEEA = NCCOCCOCC(=O)O; Aib = CC(C)(N)C(=O)O

Assay [1] concerns the target T1, human Gcg receptor (Homo sapiens, UniProt P47871).
T1 construct: expressed in transfected cells; crude membranes
The assay is described as follows: [125I]-Glucagon binding (SPA), human Gcg receptor. As to conditions: read-out: hGLcgR Ki, nM (SEM, n). In a few lines: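 Cell pellets were lysed in hypotonic Tris buffer, pH 7.5, homogenized, and spun at low then high speed to give crude membranes. Ki was derived from the fitted IC50.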

Assay [2] deals with T2, human GIP receptor (Homo sapiens, UniProt P48546).
T2 construct: expressed in transfected cells; crude membranes
T2 sequence (P48546 22-466): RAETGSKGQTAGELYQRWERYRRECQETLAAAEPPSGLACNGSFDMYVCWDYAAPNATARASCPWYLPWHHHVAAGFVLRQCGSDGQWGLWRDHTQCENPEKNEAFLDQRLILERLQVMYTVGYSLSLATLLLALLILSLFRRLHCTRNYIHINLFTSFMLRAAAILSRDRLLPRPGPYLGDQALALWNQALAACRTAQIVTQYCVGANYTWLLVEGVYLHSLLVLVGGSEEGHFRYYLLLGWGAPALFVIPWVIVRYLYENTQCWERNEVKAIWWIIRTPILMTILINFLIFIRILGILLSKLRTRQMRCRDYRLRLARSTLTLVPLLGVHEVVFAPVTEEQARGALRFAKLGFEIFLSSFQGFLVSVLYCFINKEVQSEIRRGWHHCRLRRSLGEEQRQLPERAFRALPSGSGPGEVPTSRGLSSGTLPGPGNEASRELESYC
Description: [125I]-GIP binding (SPA), human GIP receptor. As to conditions: read-out: hGIPR Ki, nM (SEM, n).

For assay [3], the target named is human GLP-1 receptor (GLP-1R) (Homo sapiens, UniProt P43220). Description: cAMP pharmacological functional assay in presence of casein, hGLP-1R. Format: cell-based. As to conditions: HEK293 cells expressing hGLP-1R, 0.1% Casein, geometric mean; read-out: hGLP1R cAMP Rel EC50 nM (SEM, n).
Chain of human GLP-1 receptor (GLP-1R) (P43220 24-463): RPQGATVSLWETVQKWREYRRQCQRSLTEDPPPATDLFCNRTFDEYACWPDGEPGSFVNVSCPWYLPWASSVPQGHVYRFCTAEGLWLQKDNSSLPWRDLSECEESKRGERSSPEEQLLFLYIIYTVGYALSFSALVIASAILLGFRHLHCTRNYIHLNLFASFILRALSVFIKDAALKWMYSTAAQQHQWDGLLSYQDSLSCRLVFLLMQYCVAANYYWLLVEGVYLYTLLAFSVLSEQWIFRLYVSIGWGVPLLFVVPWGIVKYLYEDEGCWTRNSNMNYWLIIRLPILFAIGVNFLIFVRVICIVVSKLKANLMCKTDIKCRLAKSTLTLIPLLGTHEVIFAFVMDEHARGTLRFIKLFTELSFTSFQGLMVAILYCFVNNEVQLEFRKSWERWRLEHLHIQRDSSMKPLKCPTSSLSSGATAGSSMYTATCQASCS
Assay [4] has as its target T3, gastric inhibitory peptide receptor (GIPR) (Homo sapiens, UniProt P48546).
T3 sequence (P48546 22-466): T2 sequence (P48546 22-466)
Description: cAMP pharmacological functional assay in presence of casein, hGIPR. Format: cell-based. As to conditions: HEK293 cells expressing hGIPR, 0.1% Casein, geometric mean; read-out: hGIPR cAMP Rel EC50 nM (SEM, n).

Assay [5] deals with human GLP-1R (Homo sapiens, UniProt P43220). The assay is described as follows: [125I]-GLP-1 binding (SPA), human GLP-1 receptor. Set-up: expressed in transfected cells; crude membranes. As to conditions: read-out: hGLP1R Ki, (nM) (SEM, n). In a few lines:
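Crude-membrane binding assay; one membrane prep included 1 mM MgCl2 and 25 units/ml DNAse I during lysis. Assay buffer at pH 7.4 contains 0.1% (w/v) bacitracin and 0.003% (w/v) TWEEN-20. Ki is reported as geometric mean.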

T1 sequence (P47871 26-477): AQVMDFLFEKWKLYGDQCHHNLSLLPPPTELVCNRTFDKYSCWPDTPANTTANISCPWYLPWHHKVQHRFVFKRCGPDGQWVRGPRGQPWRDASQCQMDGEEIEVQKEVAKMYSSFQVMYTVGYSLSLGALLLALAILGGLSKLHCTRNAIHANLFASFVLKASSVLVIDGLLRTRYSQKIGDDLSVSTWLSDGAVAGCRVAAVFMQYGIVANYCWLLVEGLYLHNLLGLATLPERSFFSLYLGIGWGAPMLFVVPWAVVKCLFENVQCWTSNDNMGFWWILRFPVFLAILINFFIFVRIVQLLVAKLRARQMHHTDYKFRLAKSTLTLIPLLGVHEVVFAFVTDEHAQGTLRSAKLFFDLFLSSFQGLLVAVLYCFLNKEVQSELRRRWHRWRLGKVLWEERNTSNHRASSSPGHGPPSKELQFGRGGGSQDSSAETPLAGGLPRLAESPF
Chain of human GLP-1R (P43220 24-463): as the sequence (P43220 24-463) above

In the case of `CC[C@H](C)[C@H](NC(=O)[C@H](CC(C)C)NC(=O)[C@H](Cc1ccc(O)cc1)NC(=O)[C@H](CCC(=O)O)NC(=O)[C@@H](NC(=O)[C@H](Cc1ccccc1)NC(=O)[C@H](CO)NC(=O)C(C)(C)NC(=O)[C@H](CCC(N)=O)NC(=O)[C@H](C)NC(=O)[C@H](CCCCNC(=O)COCCOCCNC(=O)COCCOCCNC(=O)CC[C@H](NC(=O)CCCCCCCCCCCCCCCCCCC(=O)O)C(=O)O)NC(=O)[C@H](CCCCN)NC(=O)[C@H](CC(=O)O)NC(=O)[C@H](CC(C)C)NC(=O)[C@](C)(CC(C)C)NC(=O)[C@@H](NC(=O)[C@H](CO)NC(=O)[C@H](Cc1ccc(O)cc1)NC(=O)[C@H](CC(=O)O)NC(=O)[C@H](CO)NC(=O)[C@@H](NC(=O)[C@](C)(Cc1ccccc1)NC(=O)[C@@H](NC(=O)CNC(=O)[C@H](CCC(=O)O)NC(=O)C(C)(C)NC(=O)[C@@H](N)Cc1ccc(O)cc1)[C@@H](C)O)[C@@H](C)O)[C@@H](C)CC)[C@@H](C)CC)C(=O)N[C@@H](CCC(=O)O)C(=O)NCC(=O)NCC(=O)N1CCC[C@H]1C(=O)N[C@@H](CO)C(=O)N[C@@H](CO)C(=O)NCC(=O)N[C@@H](C)C(=O)N1CCC[C@H]1C(=O)N1CCC[C@H]1C(=O)N1CCC[C@H]1C(=O)N[C@@H](CO)C(N)=O` [Example 138] (H-Y[Aib]EGT[αMeF]TSDYSI[αMeL]LDKK([AEEA-AEEA-γGlu-C20 diacid])AQ[Aib]SFIEYLIEGGPSSGAPPPS-NH2; N-terminus assumed), the Ki in assay [1] was determined as 61.2 nM; in assay [2], 0.0295 nM; in assay [5], 0.926 nM. For the same compound, the 50% effective concentration (EC50) stood at 0.0471 nM in assay [3] and 0.0581 nM in assay [4].

Consider `CC[C@H](C)[C@H](NC(=O)[C@H](CC(C)C)NC(=O)[C@H](Cc1ccc(O)cc1)NC(=O)[C@H](CCC(=O)O)NC(=O)[C@@H](NC(=O)[C@H](Cc1ccccc1)NC(=O)[C@H](CC(=O)O)NC(=O)C(C)(C)NC(=O)[C@H](CCC(N)=O)NC(=O)[C@H](C)NC(=O)[C@H](CCCCNC(=O)COCCOCCNC(=O)COCCOCCNC(=O)CC[C@H](NC(=O)CCCCCCCCCCCCCCCCCCC(=O)O)C(=O)O)NC(=O)[C@H](CCCCN)NC(=O)[C@H](CC(=O)O)NC(=O)[C@H](CC(C)C)NC(=O)[C@](C)(CC(C)C)NC(=O)[C@@H](NC(=O)[C@H](CO)NC(=O)[C@H](Cc1ccc(O)cc1)NC(=O)[C@H](CC(=O)O)NC(=O)[C@H](CO)NC(=O)[C@@H](NC(=O)[C@](C)(Cc1ccccc1)NC(=O)[C@@H](NC(=O)CNC(=O)[C@H](CCC(=O)O)NC(=O)C(C)(C)NC(=O)[C@@H](N)Cc1ccc(O)cc1)[C@@H](C)O)[C@@H](C)O)[C@@H](C)CC)[C@@H](C)CC)C(=O)N[C@@H](CCC(=O)O)C(=O)NCC(=O)NCC(=O)N1CCC[C@H]1C(=O)N[C@@H](CO)C(=O)N[C@@H](CO)C(=O)NCC(=O)N[C@@H](C)C(=O)N1CCC[C@H]1C(=O)N1CCC[C@H]1C(=O)N1CCC[C@H]1C(=O)N[C@@H](CO)C(N)=O` [Example 140] (H-Y[Aib]EGT[αMeF]TSDYSI[αMeL]LDKK([AEEA-AEEA-γGlu-C20 diacid])AQ[Aib]DFIEYLIEGGPSSGAPPPS-NH2), for which the results for the Ki in assay [1], in assay [2] and in assay [5] were 175 nM, 0.0474 nM and 1.46 nM, respectively. In addition, the EC50 in assay [3] stood at 0.0424 nM; in assay [4], 0.0349 nM.
